The text below walks through data of patent US10072011B2, “Substituted bridged urea analogs as sirtuin modulators” (GlaxoSmithKline Intellectual Property (No.2) Limited, priority 2014, dated 2018).

Like-named read-outs stand apart in the source and are kept apart here.

The assay addresses T1, SIRT1 (Homo sapiens, UniProt Q96EB6).
T1 sequence (Q96EB6 1-747): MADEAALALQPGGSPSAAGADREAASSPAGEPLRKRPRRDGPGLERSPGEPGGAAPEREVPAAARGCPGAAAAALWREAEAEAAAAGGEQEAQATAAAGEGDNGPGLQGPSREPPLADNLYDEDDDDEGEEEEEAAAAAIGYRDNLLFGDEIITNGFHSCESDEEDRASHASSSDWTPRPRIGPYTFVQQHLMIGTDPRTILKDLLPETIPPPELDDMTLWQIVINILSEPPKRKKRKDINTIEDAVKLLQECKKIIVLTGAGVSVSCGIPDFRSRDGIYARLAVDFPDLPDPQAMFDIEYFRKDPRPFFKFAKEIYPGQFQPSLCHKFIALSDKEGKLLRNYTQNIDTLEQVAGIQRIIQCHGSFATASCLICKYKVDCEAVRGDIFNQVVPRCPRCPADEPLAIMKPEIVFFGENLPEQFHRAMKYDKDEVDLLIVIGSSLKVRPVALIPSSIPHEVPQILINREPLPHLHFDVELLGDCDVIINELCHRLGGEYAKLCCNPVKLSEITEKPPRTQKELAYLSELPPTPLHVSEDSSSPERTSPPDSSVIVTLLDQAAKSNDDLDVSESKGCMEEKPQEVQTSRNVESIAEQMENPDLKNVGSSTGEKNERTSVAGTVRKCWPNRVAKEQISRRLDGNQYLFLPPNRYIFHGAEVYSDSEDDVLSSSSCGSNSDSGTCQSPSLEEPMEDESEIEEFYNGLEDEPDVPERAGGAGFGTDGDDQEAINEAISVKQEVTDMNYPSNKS
Put plainly: Trp mass spectrometry assay of SIRT1 activation (Ac-R-H-K-K(Ac)-W-NH2 peptide). In kind it is biochemical. Particulars: for Emax: 25 min, read-out: TRP MAX RESP (percent maximum fold activation). In short, it runs like this:
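Mass spectrometry read-out (OAADPR formed, or deacetylated Trp peptide) after a 25 min NAD-dependent deacetylation by E. coli-expressed His-SIRT1, stopped with formic acid.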

[1] abbreviates: Trp peptide 0.5 μM, 120 μM βNAD+, 10 nM SIRT1, 25 min at 25° C., relative to control (100%).
Where [2] appears, read: Trp peptide 0.5 μM, 120 μM βNAD+, 10 nM SIRT1, 25 min at 25° C.

In the case of `O=C(N[C@H](C1CC1)C(F)(F)F)c1ccc2c(n1)N(C(=O)Nc1cc(OC[C@H](O)CO)ccn1)[C@H]1CCN2C1` [Example 88, (4S)—N7-((R)-1-cyclopropyl-2,2,2-trifluoroethyl)-N5-(4-((R)-2,3-dihydroxypropoxy)pyridin-2-yl)-3,4-dihydro-1,4-methanopyrido[2,3-b][1,4]diazepine-5,7(2H)-dicarboxamide], the Emax under setting [1] is over 150%. Under setting [2], the “TRP Activity (EC1.5, concentration of test compound that results in 150% activation of SIRT1)” value was “A (EC1.5<1 μM)”.

Consider `O=C(NCC(F)(F)F)c1ccc2c(n1)N(C(=O)Nc1cc(OC[C@H](O)CO)ccn1)[C@H]1CCN2C1` [Example 89, (4S)—N5-(4-((R)-2,3-dihydroxypropoxy)pyridin-2-yl)-N7-(2,2,2-trifluoroethyl)-3,4-dihydro-1,4-methanopyrido[2,3-b][1,4]diazepine-5,7(2H)-dicarboxamide], for which, under setting [1], the Emax is over 150%. The “TRP Activity (EC1.5, concentration of test compound that results in 150% activation of SIRT1)” value under setting [2] is “A (EC1.5<1 μM)”.

`CC[C@@H](NC(=O)c1ccc2c(n1)N(C(=O)Nc1cc(OC[C@H](O)CO)ccn1)[C@H]1CCN2C1)C(F)(F)F` [Example 90, (4S)—N5-(4-((R)-2,3-dihydroxypropoxy)pyridin-2-yl)-N7-((R)-1,1,1-trifluorobutan-2-yl)-3,4-dihydro-1,4-methanopyrido[2,3-b][1,4]diazepine-5,7(2H)-dicarboxamide]: the Emax under setting [1] was over 150%. For the same compound, the “TRP Activity (EC1.5, concentration of test compound that results in 150% activation of SIRT1)” value under setting [2] was “A (EC1.5<1 μM)”.

As for `O=C(NC[C@H](O)C(F)(F)F)c1ccc2c(n1)N(C(=O)Nc1cc(OC[C@H](O)CO)ccn1)[C@H]1CCN2C1` [Example 91, (4S)—N5-(4-((R)-2,3-dihydroxypropoxy)pyridin-2-yl)-N7-((S)-3,3,3-trifluoro-2-hydroxypropyl)-3,4-dihydro-1,4-methanopyrido[2,3-b][1,4]diazepine-5,7(2H)-dicarboxamide], under setting [1], the Emax is over 150%. Besides, the “TRP Activity (EC1.5, concentration of test compound that results in 150% activation of SIRT1)” value under setting [2] was “A (EC1.5<1 μM)”.

Turning to `O=C(NCC(F)(F)F)c1ccc2c(n1)N(C(=O)Nc1ncc3cc[nH]c3n1)[C@H]1CCN2C1` [Example 93, (4S)—N5-(7H-pyrrolo[2,3-d]pyrimidin-2-yl)-N7-(2,2,2-trifluoroethyl)-3,4-dihydro-1,4-methanopyrido[2,3-b][1,4]diazepine-5,7(2H)-dicarboxamide], the Emax is over 150%. In addition, the “TRP Activity (EC1.5, concentration of test compound that results in 150% activation of SIRT1)” value under setting [2] is given as “A (EC1.5<1 μM)”.

Consider `NCC(F)(F)CNC(=O)c1ccc2c(n1)N(C(=O)Nc1ccccn1)[C@H]1CCN2C1` [Example 94, (4S)—N7-(3-amino-2,2-difluoropropyl)-N5-(pyridin-2-yl)-3,4-dihydro-1,4-methanopyrido[2,3-b][1,4]diazepine-5,7(2H)-dicarboxamide], for which, under setting [1], the Emax is over 150%. Also, under setting [2], the “TRP Activity (EC1.5, concentration of test compound that results in 150% activation of SIRT1)” value is “B (EC1.5 1-25 μM)”.

For the compound `O=C(NCC(F)(F)F)c1ccc2c(n1)N(C(=O)Nc1cnc(OC[C@H](O)CO)cn1)[C@H]1CCN2C1` [Example 95, (4S)—N5-(5-((R)-2,3-dihydroxypropoxy)pyrazin-2-yl)-N7-(2,2,2-trifluoroethyl)-3,4-dihydro-1,4-methanopyrido[2,3-b][1,4]diazepine-5,7(2H)-dicarboxamide], under setting [1], the Emax is over 150%. Moreover, the “TRP Activity (EC1.5, concentration of test compound that results in 150% activation of SIRT1)” value under setting [2] is listed as “A (EC1.5<1 μM)”.

With `O=C(NCC1CC1)c1ccc2c(n1)N(C(=O)Nc1cccnn1)[C@H]1CCN2C1` [Example 96, (4S)—N7-(cyclopropylmethyl)-N5-(pyridazin-3-yl)-3,4-dihydro-1,4-methanopyrido[2,3-b][1,4]diazepine-5,7(2H)-dicarboxamide], under setting [1], the Emax was over 150%. The “TRP Activity (EC1.5, concentration of test compound that results in 150% activation of SIRT1)” value under setting [2] is recorded as “A (EC1.5<1 μM)”.

With `O=C(NCC1CC1)c1ccc2c(n1)N(C(=O)Nc1ncccn1)[C@H]1CCN2C1` [Example 97, (4S)—N7-(cyclopropylmethyl)-N5-(pyrimidin-2-yl)-3,4-dihydro-1,4-methanopyrido[2,3-b][1,4]diazepine-5,7(2H)-dicarboxamide], the Emax under setting [1] is over 150%. The “TRP Activity (EC1.5, concentration of test compound that results in 150% activation of SIRT1)” value under setting [2] is recorded as “A (EC1.5<1 μM)”.

With `C[C@@H](NC(=O)c1ccc2c(n1)N(C(=O)Nc1cccn(C)c1=O)[C@H]1CCN2C1)C(F)(F)F` [Example 98, (4S)—N5-(1-methyl-2-oxo-1,2-dihydropyridin-3-yl)-N7-((R)-1,1,1-trifluoropropan-2-yl)-3,4-dihydro-1,4-methanopyrido[2,3-b][1,4]diazepine-5,7(2H)-dicarboxamide], the Emax under setting [1] is over 150%. In addition, the “TRP Activity (EC1.5, concentration of test compound that results in 150% activation of SIRT1)” value under setting [2] is reported as “A (EC1.5<1 μM)”.

In the case of `C#CCNC(=O)c1ccc2c(n1)N(C(=O)Nc1ccccn1)[C@H]1CCN2C1` [Example 99, (4S)—N7-(prop-2-yn-1-yl)-N5-(pyridin-2-yl)-3,4-dihydro-1,4-methanopyrido[2,3-b][1,4]diazepine-5,7(2H)-dicarboxamide], under setting [1], the Emax was over 150%. Also, the “TRP Activity (EC1.5, concentration of test compound that results in 150% activation of SIRT1)” value under setting [2] was “A (EC1.5<1 μM)”.

Turning to `CC(C)(C#N)NC(=O)c1ccc2c(n1)N(C(=O)Nc1ccccn1)[C@H]1CCN2C1` [Example 104, (4S)—N7-(2-cyanopropan-2-yl)-N5-(pyridin-2-yl)-3,4-dihydro-1,4-methanopyrido[2,3-b][1,4]diazepine-5,7(2H)-dicarboxamide], under setting [1], the Emax was over 150%. For the same compound, the “TRP Activity (EC1.5, concentration of test compound that results in 150% activation of SIRT1)” value under setting [2] is recorded as “B (EC1.5 1-25 μM)”.

Turning to `C#C[C@@H](C)NC(=O)c1ccc2c(n1)N(C(=O)Nc1ccccn1)[C@H]1CCN2C1` [Example 105, (4S)—N7-((R)-but-3-yn-2-yl)-N5-(pyridin-2-yl)-3,4-dihydro-1,4-methanopyrido[2,3-b][1,4]diazepine-5,7(2H)-dicarboxamide], the Emax under setting [1] is over 150%. In addition, the “TRP Activity (EC1.5, concentration of test compound that results in 150% activation of SIRT1)” value under setting [2] is reported as “A (EC1.5<1 μM)”.

With `O=C(NCc1ccccc1)c1ccc2c(n1)N(C(=O)Nc1ccccn1)[C@H]1CCN2C1` [Example 106, (4S)—N7-benzyl-N5-(pyridin-2-yl)-3,4-dihydro-1,4-methanopyrido[2,3-b][1,4]diazepine-5,7(2H)-dicarboxamide], the Emax under setting [1] was over 150%. Moreover, the “TRP Activity (EC1.5, concentration of test compound that results in 150% activation of SIRT1)” value under setting [2] is “A (EC1.5<1 μM)”.

With `N#CCNC(=O)c1ccc2c(n1)N(C(=O)Nc1ccccn1)[C@H]1CCN2C1` [Example 107, (4S)—N7-(cyanomethyl)-N5-(pyridin-2-yl)-3,4-dihydro-1,4-methanopyrido[2,3-b][1,4]diazepine-5,7(2H)-dicarboxamide], the Emax is over 150%. For the same compound, the “TRP Activity (EC1.5, concentration of test compound that results in 150% activation of SIRT1)” value under setting [2] was “A (EC1.5<1 μM)”.

Take `C[Si](C)(C)CNC(=O)c1ccc2c(n1)N(C(=O)Nc1ccccn1)[C@H]1CCN2C1` [Example 108, (4S)—N5-(pyridin-2-yl)-N7-((trimethylsilyl)methyl)-3,4-dihydro-1,4-methanopyrido[2,3-b][1,4]diazepine-5,7(2H)-dicarboxamide]: the Emax under setting [1] is over 150%. Also, under setting [2], the “TRP Activity (EC1.5, concentration of test compound that results in 150% activation of SIRT1)” value is listed as “A (EC1.5<1 μM)”.

Consider `CC#CCNC(=O)c1ccc2c(n1)N(C(=O)Nc1ccccn1)[C@H]1CCN2C1` [Example 109, (4S)—N7-(but-2-yn-1-yl)-N5-(pyridin-2-yl)-3,4-dihydro-1,4-methanopyrido[2,3-b][1,4]diazepine-5,7(2H)-dicarboxamide], for which, under setting [1], the Emax is over 150%. The “TRP Activity (EC1.5, concentration of test compound that results in 150% activation of SIRT1)” value under setting [2] was “A (EC1.5<1 μM)”.

On to `Cc1ccnc(NC(=O)N2c3nc(C(=O)NCC4CC4)ccc3N3CC[C@H]2C3)c1` [Example 110, (4S)—N7-(cyclopropylmethyl)-N5-(4-methylpyridin-2-yl)-3,4-dihydro-1,4-methanopyrido[2,3-b][1,4]diazepine-5,7(2H)-dicarboxamide], for which the Emax under setting [1] was over 150%. For the same compound, the “TRP Activity (EC1.5, concentration of test compound that results in 150% activation of SIRT1)” value under setting [2] is “A (EC1.5<1 μM)”.

In the case of `Cc1ccc(NC(=O)N2c3nc(C(=O)NCC4CC4)ccc3N3CC[C@H]2C3)nc1` [Example 111, (4S)—N7-(cyclopropylmethyl)-N5-(5-methylpyridin-2-yl)-3,4-dihydro-1,4-methanopyrido[2,3-b][1,4]diazepine-5,7(2H)-dicarboxamide], under setting [1], the Emax is over 150%. The “TRP Activity (EC1.5, concentration of test compound that results in 150% activation of SIRT1)” value under setting [2] is “A (EC1.5<1 μM)”.
